What follows are compounds tested against T1, human GPBAR1 receptor (Homo sapiens, UniProt Q8TDU6) (assay: functional cAMP assay in CHO-dhfr(minus) cells expressing human GPBAR1 receptors). Settings: functional cAMP assay, 30 min at 30° C., read-out: human EC50.
T1 construct: expressed in transfected cells
T1 sequence (Q8TDU6 1-330): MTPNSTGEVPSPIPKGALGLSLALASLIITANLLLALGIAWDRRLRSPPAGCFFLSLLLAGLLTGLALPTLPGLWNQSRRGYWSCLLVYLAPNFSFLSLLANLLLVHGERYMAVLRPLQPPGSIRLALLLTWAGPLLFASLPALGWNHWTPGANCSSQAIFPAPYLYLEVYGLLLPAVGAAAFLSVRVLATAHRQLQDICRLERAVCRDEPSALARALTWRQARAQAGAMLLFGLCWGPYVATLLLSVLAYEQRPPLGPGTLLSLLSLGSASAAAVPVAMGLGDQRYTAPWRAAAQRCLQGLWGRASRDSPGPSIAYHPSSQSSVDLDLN
Assay type: cell-based
Outline: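 Agonist cAMP read-out: stable GPBAR1 CHO-dhfr− clone, 30 min compound exposure at 30° C following 30 min IBMX (1 mM) preincubation in Krebs Ringer bicarbonate. Time-resolved energy-transfer detection gives EC50; parental CHO cells serve as counter-screen.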

| EC50 | SMILES |
| --- | --- |
| 0.091 µM | COC(CCl)CNc1ccc([C@@H](C/C(=N\O)c2ccnc(C)c2)c2ccccc2C)cc1 (stereo partly drawn) [Example 357, (R)-3-[4-(3-Chloro-2-methoxy-propylamino)-phenyl]-1-(2-methyl-pyridin-4-yl)-3-o-tolyl-propan-1-one oxime] |

Same assay, conditions: human EC50, functional cAMP assay, 30 min at 30° C.

| EC50 | SMILES |
| --- | --- |
| 0.048 µM | Cc1ccccc1[C@H](C/C(=N\O)c1ccc(=O)n(C)c1)c1ccc(C2CCN(S(N)(=O)=O)CC2)cc1 [Example 510, (R,E)-4-(4-(3-(Hydroxyimino)-3-(1-methyl-6-oxo-1,6-dihydropyridin-3-yl)-1-o-tolylpropyl)phenyl)piperidine-1-sulfonamide] |
| 0.006 µM | Cc1ccccc1[C@H](C/C(=N\O)c1cc(Cl)ncc1F)c1ccc(-c2ccc(C(=O)O)cc2)cc1 [Example 292, 4′-{(R)-3-(2-Chloro-5-fluoro-pyridin-4-yl)-3-[(E)-hydroxyimino]-1-o-tolyl-propyl}-biphenyl-4-carboxylic acid] |
| 0.013 µM | Cc1cc(/C(C[C@H](c2ccc(-c3ccc(C(=O)O)cc3)cc2)c2ccc(Cl)cc2C)=N/O)ccn1 [Example 297, 4′-[(R)-1-(4-Chloro-2-methyl-phenyl)-3-[(E)-hydroxyimino]-3-(2-methyl-pyridin-4-yl)-propyl]-biphenyl-4-carboxylic acid] |
| 0.023 µM | Cc1cc(=O)n(C)cc1/C(CC(c1ccc(Br)cc1)c1ccccc1C)=N/O (stereo not drawn) [Example 199, 5-{3-(4-Bromo-phenyl)-1-[(E)-hydroxyimino]-3-o-tolyl-propyl}-1,4-dimethyl-1H-pyridin-2-one] |
| 0.7 µM | Cn1cc(/C(CC(c2ccc(C(=O)N[C@H]3CC[C@H](O)CC3)c(F)c2)c2ccccc2Cl)=N/O)ccc1=O (stereo partly drawn) [Example 217, Trans-4-[1-(2-Chloro-phenyl)-3-[(E)-hydroxyimino]-3-(1-methyl-6-oxo-1,6-dihydro-pyridin-3-yl)-propyl]-2-fluoro-N-(4-hydroxy-cyclohexyl)-benzamide] |
| 0.034 µM | Cc1ccccc1C(CC(=NO)c1ccncc1)c1ccc(N2CCCCC2)cc1 (racemic) [Example 40, 3-(4-Piperidin-1-yl-phenyl)-1-pyridin-4-yl-3-o-tolyl-propan-1-one oxime] |
| 4.5 µM | Cc1ccccc1[C@H](C/C(=N/O)c1ccc(=O)n(C)c1)c1ccc(C#N)cc1 [Example 499, (R,Z)-4-(3-(hydroxyimino)-3-(1-methyl-6-oxo-1,6-dihydropyridin-3-yl)-1-o-tolylpropyl)benzonitrile] |
| 0.443 µM | Cc1ccccc1C(C/C(=N\O)c1ccc(=O)n(C)c1)c1ccc(C(=O)N(C)CCO)cc1 (stereo not drawn) [Example 209, N-(2-Hydroxy-ethyl)-4-[3-[(E)-hydroxyimino]-3-(1-methyl-6-oxo-1,6-dihydro-pyridin-3-yl)-1-o-tolyl-propyl]-N-methyl-benzamide] |
| 0.166 µM | Cn1cc(/C(CC(c2ccc(-c3ccc(C(=O)O)c(F)c3)cc2)c2ccc(Cl)cc2Cl)=N/O)ccc1=O (single isomer, unassigned) [Example 475, 4′-[(+)-1-(2,4-dichloro-phenyl)-3-[(E)-hydroxyimino]-3-(1-methyl-6-oxo-1,6-dihydro-pyridin-3-yl)-propyl]-3-fluoro-biphenyl-4-carboxylic acid] |
| 0.01 µM | Cc1cc(C(CC(c2ccc(-c3ccc(C(=O)NCC(=O)O)cc3)cc2)c2ccccc2C)=NO)ccn1 (racemic) [Example 90, ({4′-[3-[Hydroxyimino]-3-(2-methyl-pyridin-4-yl)-1-o-tolyl-propyl]-biphenyl-4-carbonyl}-amino)-acetic acid] |
| 0.019 µM | Cc1cc(/C(C[C@H](c2ccc(NCC(CCl)C(=O)O)cc2)c2ccccc2C)=N/O)ccn1 (stereo partly drawn) [Example 280, 2-Chloromethyl-3-{4-[(R)-3-[(E)-hydroxyimino]-3-(2-methyl-pyridin-4-yl)-1-o-tolyl-propyl]-phenylamino}-propionic acid] |
| 0.007 µM | Cc1cc(C(CC(c2ccc(-c3ccc(C(=O)NCCC(=O)O)cc3)cc2)c2ccccc2C)=NO)ccn1 (racemic) [Example 89, 3-({4′-[3-[Hydroxyimino]-3-(2-methyl-pyridin-4-yl)-1-o-tolyl-propyl]-biphenyl-4-carbonyl}-amino)-propionic acid] |
| 0.103 µM | CC(=O)N1CCN(c2ccc(C(CC(=NO)c3ccnc(C)c3)c3ccc(F)cc3F)cn2)CC1 (stereo not drawn) [Example 444, 3-[6-(4-Acetyl-piperazin-1-yl)-pyridin-3-yl]-3-(2,4-difluoro-phenyl)-1-(2-methyl-pyridin-4-yl)-propan-1-one oxime] |
| 0.011 µM | Cc1cc(/C(C[C@H](c2ccc(N3CCS(=O)(=O)CC3)cc2)c2ccccc2C)=N/O)ccn1 [Example 271, (E,R)-3-[4-(1,1-Dioxo-1λ6-thiomorpholin-4-yl)-phenyl]-1-(2-methyl-pyridin-4-yl)-3-o-tolyl-propan-1-one oxime] |
| 0.051 µM | Cc1cc(/C(C[C@@H](c2ccc(C(=O)N(C)C)cc2)c2ccc(Cl)cc2C)=N/O)ccn1 [Example 283, 4-[(S)-1-(4-Chloro-2-methyl-phenyl)-3-[(E)-hydroxyimino]-3-(2-methyl-pyridin-4-yl)-propyl]-N,N-dimethyl-benzamide] |
| 0.137 µM | COCCNC(=O)c1ccc(C(C/C(=N\O)c2ccc(=O)n(C)c2)c2ccccc2Cl)cc1F (stereo not drawn) [Example 232, (E)-4-(1-(2-Chlorophenyl)-3-(hydroxyimino)-3-(1-methyl-6-oxo-1,6-dihydropyridin-3-yl)propyl)-2-fluoro-N-(2-methoxyethyl)benzamide] |
| 0.48 µM | Cc1cc(Cl)ccc1C(C/C(=N\O)c1ccc(=O)n(C)c1)c1ccc(-c2ccc(C#N)cc2)cc1 (stereo not drawn) [Example 251, (E)-4′-(1-(4-Chloro-2-methylphenyl)-3-(hydroxyimino)-3-(1-methyl-6-oxo-1,6-dihydropyridin-3-yl)propyl)biphenyl-4-carbonitrile] |
| 0.011 µM | Cc1cc(/C(C[C@H](c2ccc(-c3nnc(CC(=O)O)o3)cc2)c2ccccc2C)=N/O)ccn1 (single isomer, unassigned) [Example 422, (5-{4-[(−)-3-[(E)-Hydroxyimino]-3-(2-methyl-pyridin-4-yl)-1-o-tolyl-propyl]-phenyl}-[1,3,4]oxadiazol-2-yl)-acetic acid] |
| 3.75 µM | Cc1cc(Cl)ccc1C(C/C(=N\O)c1ccc(=O)n(CC(N)=O)c1)c1ccc(S(C)(=O)=O)cc1 (stereo not drawn) [Example 343, (E)-2-(5-(3-(4-Chloro-2-methylphenyl)-1-(hydroxyimino)-3-(4-(methylsulfonyl)-phenyl)propyl)-2-oxopyridin-1(2H)-yl)acetamide] |
| 0.165 µM | COC(=O)CC(=O)Nc1ccc(-c2ccc(C(C/C(=N\O)c3ccc(=O)n(C)c3)c3ccc(F)cc3C)cc2)cc1 (stereo not drawn) [Example 399, N-{4′-[1-(4-Fluoro-2-methyl-phenyl)-3-[(E)-hydroxyimino]-3-(1-methyl-6-oxo-1,6-dihydro-pyridin-3-yl)-propyl]-biphenyl-4-yl}-malonamic acid methyl ester] |
| 0.405 µM | CC(=O)N1CCC(c2ccc([C@@H](C/C(=N\O)c3ccc(=O)n(C)c3)c3ccccc3C)cc2)CC1 [Example 508, (R,E)-5-(3-(4-(1-Acetylpiperidin-4-yl)phenyl)-1-(hydroxyimino)-3-o-tolylpropyl)-1-methylpyridin-2(1H)-one] |
| 4 µM | CC(C)CC(C/C(=N/O)c1ccc(=O)n(C)c1)c1ccc(Br)cc1 (stereo not drawn) [Example 171, 5-{3-(4-Bromo-phenyl)-1-[(Z)-hydroxyimino]-5-methyl-hexyl}-1-methyl-1H-pyridin-2-one] |
| 0.017 µM | Cc1cnc(F)cc1C(CC(c1ccccc1)c1ccccc1)=NO (racemic) [Example 59, 1-(2-Fluoro-5-methyl-pyridin-4-yl)-3,3-diphenyl-propan-1-one oxime] |
| 0.028 µM | Cc1ccccc1[C@H](C/C(Cc1ccncc1)=N\O)c1ccc(Br)cc1 [Example 261, (E,R)-4-(4-bromophenyl)-1-(pyridin-4-yl)-4-o-tolylbutan-2-one oxime] |
| 0.062 µM | Cc1cc(/C(CC(c2ccc(C(=O)NC3CCCCC3)cc2)c2ccc(F)cc2F)=N/O)ccn1 (stereo not drawn) [Example 436, N-Cyclohexyl-4-[1-(2,4-difluoro-phenyl)-3-[(E)-hydroxyimino]-3-(2-methyl-pyridin-4-yl)-propyl]-benzamide] |
| 1.89 µM | O=C(O)c1cccc(C(C/C(=N\O)c2ccncc2)c2ccccc2)c1 (stereo not drawn) [Example 69, 3-{3-[(E)-Hydroxyimino]-1-phenyl-3-pyridin-4-yl-propyl}-benzoic acid] |
| 0.071 µM | Cc1cc(Cl)ccc1C(C/C(=N\O)c1ccc(=O)n(C)c1)c1ccc(Oc2ccc(F)c(C(=O)O)c2)cc1 (stereo not drawn) [Example 348, 5-{4-[1-(4-Chloro-2-methyl-phenyl)-3-[(E)-hydroxyimino]-3-(1-methyl-6-oxo-1,6-dihydro-pyridin-3-yl)-propyl]-phenoxy}-2-fluoro-benzoic acid] |
| 0.698 µM | Cc1cc(/C(=N/O)C(C)[C@H](c2ccc(Br)cc2)c2ccc(Cl)cc2C)ccn1 (stereo partly drawn) [Example 385, (3R,E)-3-(4-bromophenyl)-3-(4-chloro-2-methylphenyl)-2-methyl-1-(2-methylpyridin-4-yl)propan-1-one oxime] |
| 0.015 µM | COCCc1nnc(-c2ccc([C@@H](C/C(=N\O)c3ccnc(C)c3)c3ccccc3C)cc2)o1 [Example 420, ((−), E)-3-{4-[5-(2-Methoxy-ethyl)[1,3,4]oxadiazol-2-yl]-phenyl}-1-(2-methyl-pyridin-4-yl)-3-o-tolyl-propan-1-one oxime] |

Source: patent US8765730B2 (Hoffmann-La Roche Inc, priority 2010, dated 2014)
